# Numbered stars: 1 amine (or outer) side, 2 acyl side, 3 side chain; on linkers, the order of the positions; unused ones are H or OH. Square brackets hold non-standard residues; d marks the D form. Peptide text beside a SMILES is read from it. * marks the point of attachment. ξ: configuration not given here. C19 diacid = O=C(O)CCCCCCCCCCCCCCCCCC(=O)*; C17 diacid = O=C(O)CCCCCCCCCCCCCCCC(=O)*; Docosanoyl = CCCCCCCCCCCCCCCCCCCCCC(=O)*; Nonadecanoyl = CCCCCCCCCCCCCCCCCCC(=O)*; Arachidoyl = CCCCCCCCCCCCCCCCCCCC(=O)*; C15 diacid = O=C(O)CCCCCCCCCCCCCC(=O)*; Heptadecanoyl = CCCCCCCCCCCCCCCCC(=O)*; C14 diacid = O=C(O)CCCCCCCCCCCCC(=O)*; Pentadecanoyl = CCCCCCCCCCCCCCC(=O)*; Pentanoyl(5-Ph) = O=C(CCCCc1ccccc1)*; Adipoyl = O=C(CCCCC(=O)[*:2])[*:1]; Tridecanoyl = CCCCCCCCCCCCC(=O)*; Malonyl = O=C(CC(=O)[*:2])[*:1]; Lauroyl = CCCCCCCCCCCC(=O)*; ξR = N=C(N)NCCCC(N)C(=O)O; Octanoyl = CCCCCCCC(=O)*; Aun = NCCCCCCCCCCC(=O)O; Hexanoyl = CCCCCC(=O)*; Propionyl = CCC(=O)*
# What was measured:
# [1] = target: T1, Tyrosine-protein phosphatase non-receptor type 1 (Homo sapiens) (UniProt P18031); test: Inhibition of N-terminal His tagged recombinant human PTP1B expressed in Escherichia coli using pNPP as substrate assessed as substrate hydrolysis at 40 umol/L relative to control; settings: dose 40.0 µmol/L
# T1 sequence (whole entry): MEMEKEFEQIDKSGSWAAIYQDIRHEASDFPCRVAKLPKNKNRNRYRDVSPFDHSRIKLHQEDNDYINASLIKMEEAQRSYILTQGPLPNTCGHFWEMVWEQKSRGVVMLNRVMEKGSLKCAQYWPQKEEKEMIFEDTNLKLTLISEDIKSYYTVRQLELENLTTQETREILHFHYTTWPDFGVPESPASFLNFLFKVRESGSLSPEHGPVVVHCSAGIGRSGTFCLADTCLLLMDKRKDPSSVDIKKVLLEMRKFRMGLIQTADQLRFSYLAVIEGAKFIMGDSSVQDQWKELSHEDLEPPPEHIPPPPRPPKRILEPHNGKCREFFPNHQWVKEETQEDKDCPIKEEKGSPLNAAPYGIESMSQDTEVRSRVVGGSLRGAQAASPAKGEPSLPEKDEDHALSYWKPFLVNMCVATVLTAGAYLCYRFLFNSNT
# [2] = target: T2, Tyrosine-protein phosphatase non-receptor type 1 (Homo sapiens, UniProt P18031); test: Inhibition of N-terminal His tagged recombinant human PTP1B expressed in Escherichia coli using pNPP as substrate assessed as substrate hydrolysis
# T2 sequence (P18031 whole entry): T1 sequence (whole entry)
inhibition [1],IC50 [2],Compound
> 50%,6780 nM,CCCCCCCCCCCCCCCCCCCCCC(=O)N[C@H](C(=O)N[C@@H](C)C(=O)N[C@@H](CCC(N)=O)C(=O)N[C@@H](CCC(=O)O)C(=O)N[C@@H](CC(C)C)C(=O)N[C@@H](CCCNC(=N)N)C(=O)NC(CCCNC(=N)N)C(=O)N[C@H](C(=O)NCC(=O)N[C@@H](CC(=O)O)C(=O)N[C@@H](CCC(=O)O)C(=O)N[C@@H](Cc1ccccc1)C(=O)O)[C@@H](C)CC)[C@@H](C)CC (stereo partly specified) (Docosanoyl-IAQELR[ξR]IGDEF-OH)
> 50%,437 nM,CCCCCCCCCCCCCCCCCCC(=O)N[C@H](C(=O)N[C@@H](C)C(=O)N[C@@H](CCC(N)=O)C(=O)N[C@@H](CCC(=O)O)C(=O)N[C@@H](CC(C)C)C(=O)N[C@@H](CCCNC(=N)N)C(=O)NC(CCCNC(=N)N)C(=O)N[C@H](C(=O)NCC(=O)N[C@@H](CC(=O)O)C(=O)N[C@@H](CCC(=O)O)C(=O)N[C@@H](Cc1ccccc1)C(=O)O)[C@@H](C)CC)[C@@H](C)CC (stereo partly specified) (Nonadecanoyl-IAQELR[ξR]IGDEF-OH)
> 50%,835 nM,CCCCCCCCCCCCC(=O)N[C@H](C(=O)N[C@@H](C)C(=O)N[C@@H](CCC(N)=O)C(=O)N[C@@H](CCC(=O)O)C(=O)N[C@@H](CC(C)C)C(=O)N[C@@H](CCCNC(=N)N)C(=O)N[C@@H](CCCNC(=N)N)C(=O)N[C@H](C(=O)NCC(=O)N[C@@H](CC(=O)O)C(=O)N[C@@H](CCC(=O)O)C(=O)N[C@@H](Cc1ccccc1)C(=O)O)[C@@H](C)CC)[C@@H](C)CC (Tridecanoyl-IAQELRRIGDEF-OH)
> 50%,2570 nM,CCCCCCCCCCCCCCCCC(=O)N[C@H](C(=O)N[C@@H](C)C(=O)N[C@@H](CCC(N)=O)C(=O)N[C@@H](CCC(=O)O)C(=O)N[C@@H](CC(C)C)C(=O)N[C@@H](CCCNC(=N)N)C(=O)N[C@@H](CCCNC(=N)N)C(=O)N[C@H](C(=O)NCC(=O)N[C@@H](CC(=O)O)C(=O)N[C@@H](CCC(=O)O)C(=O)N[C@@H](Cc1ccccc1)C(=O)O)[C@@H](C)CC)[C@@H](C)CC (Heptadecanoyl-IAQELRRIGDEF-OH)
> 50%,2780 nM,CCCCCCCCCCCC(=O)N[C@H](C(=O)N[C@@H](C)C(=O)N[C@@H](CCC(N)=O)C(=O)N[C@@H](CCC(=O)O)C(=O)N[C@@H](CC(C)C)C(=O)N[C@@H](CCCNC(=N)N)C(=O)N[C@@H](CCCNC(=N)N)C(=O)N[C@H](C(=O)NCC(=O)N[C@@H](CC(=O)O)C(=O)N[C@@H](CCC(=O)O)C(=O)N[C@@H](Cc1ccccc1)C(=O)O)[C@@H](C)CC)[C@@H](C)CC (Lauroyl-IAQELRRIGDEF-OH)
> 50%,1270 nM,CC[C@H](C)[C@H](NC(=O)CCCCCCCCCCCCCCCCCC(=O)O)C(=O)N[C@@H](C)C(=O)N[C@@H](CCC(N)=O)C(=O)N[C@@H](CCC(=O)O)C(=O)N[C@@H](CC(C)C)C(=O)N[C@@H](CCCNC(=N)N)C(=O)NC(CCCNC(=N)N)C(=O)N[C@H](C(=O)NCC(=O)N[C@@H](CC(=O)O)C(=O)N[C@@H](CCC(=O)O)C(=O)N[C@@H](Cc1ccccc1)C(=O)O)[C@@H](C)CC (stereo partly specified) ({C19 diacid}-IAQELR[ξR]IGDEF-OH)
< 50%,–,CC[C@H](C)[C@H](NC(=O)CC(=O)O)C(=O)N[C@@H](C)C(=O)N[C@@H](CCC(N)=O)C(=O)N[C@@H](CCC(=O)O)C(=O)N[C@@H](CC(C)C)C(=O)N[C@@H](CCCNC(=N)N)C(=O)N[C@@H](CCCNC(=N)N)C(=O)N[C@H](C(=O)NCC(=O)N[C@@H](CC(=O)O)C(=O)N[C@@H](CCC(=O)O)C(=O)N[C@@H](Cc1ccccc1)C(=O)O)[C@@H](C)CC (Malonyl-IAQELRRIGDEF-OH)
< 50%,–,CC[C@H](C)[C@H](NC(=O)CCCCc1ccccc1)C(=O)N[C@@H](C)C(=O)N[C@@H](CCC(N)=O)C(=O)N[C@@H](CCC(=O)O)C(=O)N[C@@H](CC(C)C)C(=O)N[C@@H](CCCNC(=N)N)C(=O)N[C@@H](CCCNC(=N)N)C(=O)N[C@H](C(=O)NCC(=O)N[C@@H](CC(=O)O)C(=O)N[C@@H](CCC(=O)O)C(=O)N[C@@H](Cc1ccccc1)C(=O)O)[C@@H](C)CC ({Pentanoyl(5-Ph)}-IAQELRRIGDEF-OH)
< 50%,–,Ac-IAQELRRIGDEF-OH
< 50%,–,CCCCCCCC(=O)N[C@H](C(=O)N[C@@H](C)C(=O)N[C@@H](CCC(N)=O)C(=O)N[C@@H](CCC(=O)O)C(=O)N[C@@H](CC(C)C)C(=O)N[C@@H](CCCNC(=N)N)C(=O)N[C@@H](CCCNC(=N)N)C(=O)N[C@H](C(=O)NCC(=O)N[C@@H](CC(=O)O)C(=O)N[C@@H](CCC(=O)O)C(=O)N[C@@H](Cc1ccccc1)C(=O)O)[C@@H](C)CC)[C@@H](C)CC (Octanoyl-IAQELRRIGDEF-OH)
> 50%,1360 nM,CC[C@H](C)[C@H](NC(=O)CCCCCCCCCCCCCCCC(=O)O)C(=O)N[C@@H](C)C(=O)N[C@@H](CCC(N)=O)C(=O)N[C@@H](CCC(=O)O)C(=O)N[C@@H](CC(C)C)C(=O)N[C@@H](CCCNC(=N)N)C(=O)NC(CCCNC(=N)N)C(=O)N[C@H](C(=O)NCC(=O)N[C@@H](CC(=O)O)C(=O)N[C@@H](CCC(=O)O)C(=O)N[C@@H](Cc1ccccc1)C(=O)O)[C@@H](C)CC (stereo partly specified) ({C17 diacid}-IAQELR[ξR]IGDEF-OH)
> 50%,3890 nM,CCCCCCCCCCCCCCCCCCCC(=O)N[C@H](C(=O)N[C@@H](C)C(=O)N[C@@H](CCC(N)=O)C(=O)N[C@@H](CCC(=O)O)C(=O)N[C@@H](CC(C)C)C(=O)N[C@@H](CCCNC(=N)N)C(=O)NC(CCCNC(=N)N)C(=O)N[C@H](C(=O)NCC(=O)N[C@@H](CC(=O)O)C(=O)N[C@@H](CCC(=O)O)C(=O)N[C@@H](Cc1ccccc1)C(=O)O)[C@@H](C)CC)[C@@H](C)CC (stereo partly specified) (Arachidoyl-IAQELR[ξR]IGDEF-OH)
< 50%,–,CCCCCC(=O)N[C@H](C(=O)N[C@@H](C)C(=O)N[C@@H](CCC(N)=O)C(=O)N[C@@H](CCC(=O)O)C(=O)N[C@@H](CC(C)C)C(=O)N[C@@H](CCCNC(=N)N)C(=O)N[C@@H](CCCNC(=N)N)C(=O)N[C@H](C(=O)NCC(=O)N[C@@H](CC(=O)O)C(=O)N[C@@H](CCC(=O)O)C(=O)N[C@@H](Cc1ccccc1)C(=O)O)[C@@H](C)CC)[C@@H](C)CC (Hexanoyl-IAQELRRIGDEF-OH)
< 50%,–,CC[C@H](C)[C@H](NC(=O)CCCCCCCCCCN)C(=O)N[C@@H](C)C(=O)N[C@@H](CCC(N)=O)C(=O)N[C@@H](CCC(=O)O)C(=O)N[C@@H](CC(C)C)C(=O)N[C@@H](CCCNC(=N)N)C(=O)N[C@@H](CCCNC(=N)N)C(=O)N[C@H](C(=O)NCC(=O)N[C@@H](CC(=O)O)C(=O)N[C@@H](CCC(=O)O)C(=O)N[C@@H](Cc1ccccc1)C(=O)O)[C@@H](C)CC (H-[Aun]IAQELRRIGDEF-OH)
< 50%,–,CC[C@H](C)[C@H](NC(=O)CCCCC(=O)O)C(=O)N[C@@H](C)C(=O)N[C@@H](CCC(N)=O)C(=O)N[C@@H](CCC(=O)O)C(=O)N[C@@H](CC(C)C)C(=O)N[C@@H](CCCNC(=N)N)C(=O)N[C@@H](CCCNC(=N)N)C(=O)N[C@H](C(=O)NCC(=O)N[C@@H](CC(=O)O)C(=O)N[C@@H](CCC(=O)O)C(=O)N[C@@H](Cc1ccccc1)C(=O)O)[C@@H](C)CC (Adipoyl-IAQELRRIGDEF-OH)
< 50%,–,CCC(=O)N[C@H](C(=O)N[C@@H](C)C(=O)N[C@@H](CCC(N)=O)C(=O)N[C@@H](CCC(=O)O)C(=O)N[C@@H](CC(C)C)C(=O)N[C@@H](CCCNC(=N)N)C(=O)N[C@@H](CCCNC(=N)N)C(=O)N[C@H](C(=O)NCC(=O)N[C@@H](CC(=O)O)C(=O)N[C@@H](CCC(=O)O)C(=O)N[C@@H](Cc1ccccc1)C(=O)O)[C@@H](C)CC)[C@@H](C)CC (Propionyl-IAQELRRIGDEF-OH)
> 50%,4350 nM,CCCCCCCCCCCCCCCC(=O)N[C@@H](CCC(=O)N[C@H](C(=O)N[C@@H](C)C(=O)N[C@H](CCC(N)=O)C(=O)N[C@@H](CCC(=O)O)C(=O)N[C@@H](CC(C)C)C(=O)N[C@@H](CCCNC(=N)N)C(=O)N[C@@H](CCCNC(=N)N)C(=O)N[C@H](C(=O)NCC(=O)N[C@@H](CC(=O)O)C(=O)N[C@@H](CCC(=O)O)C(=O)N[C@@H](Cc1ccccc1)C(=O)O)[C@@H](C)CC)[C@@H](C)CC)C(=O)O
> 50%,1540 nM,CC[C@H](C)[C@H](NC(=O)CCCCCCCCCCCCCC(=O)O)C(=O)N[C@@H](C)C(=O)N[C@@H](CCC(N)=O)C(=O)N[C@@H](CCC(=O)O)C(=O)N[C@@H](CC(C)C)C(=O)N[C@@H](CCCNC(=N)N)C(=O)N[C@@H](CCCNC(=N)N)C(=O)N[C@H](C(=O)NCC(=O)N[C@@H](CC(=O)O)C(=O)N[C@@H](CCC(=O)O)C(=O)N[C@@H](Cc1ccccc1)C(=O)O)[C@@H](C)CC ({C15 diacid}-IAQELRRIGDEF-OH)
> 50%,1660 nM,CCCCCCCCCCCCCCC(=O)N[C@H](C(=O)N[C@@H](C)C(=O)N[C@@H](CCC(N)=O)C(=O)N[C@@H](CCC(=O)O)C(=O)N[C@@H](CC(C)C)C(=O)N[C@@H](CCCNC(=N)N)C(=O)N[C@@H](CCCNC(=N)N)C(=O)N[C@H](C(=O)NCC(=O)N[C@@H](CC(=O)O)C(=O)N[C@@H](CCC(=O)O)C(=O)N[C@@H](Cc1ccccc1)C(=O)O)[C@@H](C)CC)[C@@H](C)CC (Pentadecanoyl-IAQELRRIGDEF-OH)
< 50%,–,CC[C@H](C)[C@H](NC(=O)CCCCCCCCCCCCC(=O)O)C(=O)N[C@@H](C)C(=O)N[C@@H](CCC(N)=O)C(=O)N[C@@H](CCC(=O)O)C(=O)N[C@@H](CC(C)C)C(=O)N[C@@H](CCCNC(=N)N)C(=O)NC(CCCNC(=N)N)C(=O)N[C@H](C(=O)NCC(=O)N[C@@H](CC(=O)O)C(=O)N[C@@H](CCC(=O)O)C(=O)N[C@@H](Cc1ccccc1)C(=O)O)[C@@H](C)CC (stereo partly specified) ({C14 diacid}-IAQELR[ξR]IGDEF-OH)

# — ChEMBL document CHEMBL5316338, “Discovery of Novel PTP1B Inhibitors with Once-Weekly Therapeutic Potential for Type 2 Diabetes: Design, Synthesis, and In Vitro and In Vivo Investigations of BimBH3 Peptide Analogues” (J Med Chem, 2023)
